This passage reports IC50 results from US12209087B2, “AKT1 modulators” (Alterome Therapeutics, Inc., priority 2022, dated 2025).

Where only a bound is given, the exact number is not on record here.

As usually defined, the IC50 is the point on the concentration scale where inhibition reaches its midpoint.

The target of the experiment is T1, full length AKT E17K (Homo sapiens, UniProt P31749, E17K).
T1 construct: host or cells: HEK-293 (ATCC CRL-1573)
T1 sequence (P31749 whole entry E17K): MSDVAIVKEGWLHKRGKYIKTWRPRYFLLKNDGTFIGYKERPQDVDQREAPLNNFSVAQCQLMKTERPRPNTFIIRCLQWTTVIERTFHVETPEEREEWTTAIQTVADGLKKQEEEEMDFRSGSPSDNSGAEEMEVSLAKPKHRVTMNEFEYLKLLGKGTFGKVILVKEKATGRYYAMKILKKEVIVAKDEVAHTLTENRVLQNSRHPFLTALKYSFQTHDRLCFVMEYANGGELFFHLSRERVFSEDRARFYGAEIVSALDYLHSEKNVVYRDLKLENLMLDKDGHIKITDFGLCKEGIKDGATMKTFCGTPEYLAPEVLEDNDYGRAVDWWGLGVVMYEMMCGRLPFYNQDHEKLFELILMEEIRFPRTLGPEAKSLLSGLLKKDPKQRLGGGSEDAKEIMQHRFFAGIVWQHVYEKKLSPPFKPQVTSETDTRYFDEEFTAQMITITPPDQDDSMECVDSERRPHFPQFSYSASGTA
Put plainly: NanoBRET Target Engagement (TE) Assay. It counts as cell-based. The conditions noted are these: competitive displacement of tracer in cells, read-out: AKT1 E17K IC50. A digest of the protocol: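 Compound and tracer incubated 2 h before luminescence at donor 450 nm and acceptor 600 nm, with extracellular signal inhibited. EC50 by sigmoidal variable-slope regression.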
A general note: In BRET a luciferase serves as donor, and the signal depends on an acceptor being close.
As for `N#Cc1cc(N2CCN(Cc3ccc(-n4c(-c5cccnc5N)nc5ccc(-c6ccccc6Cl)nc54)cc3)CC2)ncn1` [Example 326, 6-(4-(4-(2-(2-Aminopyridin-3-yl)-5-(2-chlorophenyl)-3H-imidazo[4,5-b]pyridin-3-yl)benzyl)piperazin-1-yl)pyrimidine-4-carbonitrile], the IC50 was 15 to 60 nM. Regarding `N#Cc1ncc(C(=O)N2CCN(Cc3ccc(-n4c(-c5cccnc5N)nc5ccc(-c6ccccc6)nc54)cc3)CC2)s1` [Example 327, 5-(4-(4-(2-(2-Aminopyridin-3-yl)-5-phenyl-3H-imidazo[4,5-b]pyridin-3-yl)benzyl)piperazine-1-carbonyl)thiazole-2-carbonitrile], the IC50 is 60 to 600 nM. `N#Cc1ncnc(N2CCN(Cc3ccc(-n4c(-c5cccnc5N)nc5ccc(-c6ccccc6)nc54)cc3)CC2)n1` [Example 328, 4-(4-(4-(2-(2-aminopyridin-3-yl)-5-phenyl-3H-imidazo[4,5-b]pyridin-3-yl)benzyl)piperazin-1-yl)-1,3,5-triazine-2-carbonitrile]: the IC50 was less than 15 nM.

With `N#Cc1nccc(N2CCN(Cc3ccc(-n4c(-c5cccnc5N)nc5ccc(C6=CCCCC6)nc54)cc3)CC2)n1` [Example 329, 4-(4-(4-(2-(2-Aminopyridin-3-yl)-5-(cyclohex-1-en-1-yl)-3H-imidazo[4,5-b]pyridin-3-yl)benzyl)piperazin-1-yl)pyrimidine-2-carbonitrile], the IC50 fell in the range of 15 to 60 nM. For `N#Cc1nccc(N2CCN(Cc3ccc(-n4c(-c5cccnc5N)nc5ccc(C6=CCOCC6)nc54)cc3)CC2)n1` [Example 330, 4-(4-(4-(2-(2-Aminopyridin-3-yl)-5-(3,6-dihydro-2H-pyran-4-yl)-3H-imidazo[4,5-b]pyridin-3-yl)benzyl)piperazin-1-yl)pyrimidine-2-carbonitrile], the IC50 was less than 15 nM. As to `N#Cc1cccc(-c2ccc3nc(-c4cccnc4N)n(-c4ccc(CN5CCN(c6ccnc(C#N)n6)CC5)cc4)c3n2)c1` [Example 331, 4-(4-(4-(2-(2-Aminopyridin-3-yl)-5-(3-cyanophenyl)-3H-imidazo[4,5-b]pyridin-3-yl)benzyl)piperazin-1-yl)pyrimidine-2-carbonitrile], the IC50 was less than 15 nM. In the case of `N#Cc1nccc(N2CCN(Cc3ccc(-n4c(-c5cccnc5N)nc5ccc(-c6ccc(=O)[nH]c6)nc54)cc3)CC2)n1` [Example 332, 4-(4-(4-(2-(2-Aminopyridin-3-yl)-5-(6-oxo-1,6-dihydropyridin-3-yl)-3H-imidazo[4,5-b]pyridin-3-yl)benzyl)piperazin-1-yl)pyrimidine-2-carbonitrile] it was 600 to 10000 nM. With `N#Cc1ccnc(N2CCN(Cc3ccc(-n4c(-c5cccnc5N)nc5ccc(-c6cccc(=O)[nH]6)nc54)cc3)CC2)n1` [Example 333, 2-(4-(4-(2-(2-Aminopyridin-3-yl)-5-(6-oxo-1,6-dihydropyridin-2-yl)-3H-imidazo[4,5-b]pyridin-3-yl)benzyl)piperazin-1-yl)pyrimidine-4-carbonitrile], the IC50 is 15 to 60 nM.

For the molecule `N#Cc1cc(N2CCN(Cc3ccc(-n4c(-c5cccnc5N)nc5ccc(-c6cccc(=O)[nH]6)nc54)cc3)CC2)ncn1` [Example 334, 6-(4-(4-(2-(2-Aminopyridin-3-yl)-5-(6-oxo-1,6-dihydropyridin-2-yl)-3H-imidazo[4,5-b]pyridin-3-yl)benzyl)piperazin-1-yl)pyrimidine-4-carbonitrile], the IC50 is 15 to 60 nM. In the case of `N#Cc1nccc(NC2CCN(Cc3ccc(-n4c(-c5cccnc5N)nc5ccc(-c6ccccc6C#N)nc54)cc3)CC2)n1` [Example 335, 4-((1-(4-(2-(2-Aminopyridin-3-yl)-5-(2-cyanophenyl)-3H-imidazo[4,5-b]pyridin-3-yl)benzyl)piperidin-4-yl)amino)pyrimidine-2-carbonitrile] it was less than 15 nM; in that of `CN(C(=O)c1ccnc(C#N)n1)C1CCN(Cc2ccc(-n3c(-c4cccnc4N)nc4ccc(-c5ccccc5)nc43)cc2)CC1` [Example 336, N-(1-(4-(2-(2-aminopyridin-3-yl)-5-phenyl-3H-imidazo[4,5-b]pyridin-3-yl)benzyl)piperidin-4-yl)-2-cyano-N-methylpyrimidine-4-carboxamide], less than 15 nM. In the case of `N#Cc1ncnc(N[C@@H]2CCCN(Cc3ccc(-n4c(-c5cccnc5N)nc5ccc(-c6ccccc6)nc54)cc3)C2)n1` [Example 337, (R)-4-((1-(4-(2-(2-Aminopyridin-3-yl)-5-phenyl-3H-imidazo[4,5-b]pyridin-3-yl)benzyl)piperidin-3-yl)amino)-1,3,5-triazine-2-carbonitrile] it was less than 15 nM. Regarding `N#Cc1ncnc(N2C[C@@H]3C[C@H]2CN3Cc2ccc(-n3c(-c4cccnc4N)nc4ccc(-c5ccccc5)nc43)cc2)n1` [Example 338, 4-((1S,4S)-5-(4-(2-(2-Aminopyridin-3-yl)-5-phenyl-3H-imidazo[4,5-b]pyridin-3-yl)benzyl)-2,5-diazabicyclo[2.2.1]heptan-2-yl)-1,3,5-triazine-2-carbonitrile], the IC50 was 15 to 60 nM.

As to `N#Cc1nccc(N2C[C@H]3CN(Cc4ccc(-n5c(-c6cccnc6N)nc6ccc(-c7ccccc7)nc65)cc4)C[C@H]3C2)n1` [Example 339, 4-((3aR,6aS)-5-(4-(2-(2-aminopyridin-3-yl)-5-phenyl-3H-imidazo[4,5-b]pyridin-3-yl)benzyl)hexahydropyrrolo[3,4-c]pyrrol-2(1H)-yl)pyrimidine-2-carbonitrile], the IC50 lay within 15 to 60 nM. Then `N#Cc1ncnc(N2C[C@H]3CN(Cc4ccc(-n5c(-c6cccnc6N)nc6ccc(-c7ccccc7)nc65)cc4)C[C@H]3C2)n1` [Example 340, 4-((3aR,6aS)-5-(4-(2-(2-Aminopyridin-3-yl)-5-phenyl-3H-imidazo[4,5-b]pyridin-3-yl)benzyl)hexahydropyrrolo[3,4-c]pyrrol-2(1H)-yl)-1,3,5-triazine-2-carbonitrile], with less than 15 nM. Then `N#Cc1nccc(N2C[C@H]3CN(Cc4ccc(-n5c(-c6cccnc6N)nc6ccc(-c7ccccc7)nc65)cc4)C[C@@H]3C2)n1` [Example 341, 4-((3aR,6aR)-5-(4-(2-(2-aminopyridin-3-yl)-5-phenyl-3H-imidazo[4,5-b]pyridin-3-yl)benzyl)hexahydropyrrolo[3,4-c]pyrrol-2(1H)-yl)pyrimidine-2-carbonitrile], with less than 15 nM; and `N#Cc1nccc(N2CCN(Cc3ccc(-n4c(-c5cccnc5N)nc5ccc(-c6ccc(Cl)cc6)nc54)cc3)CC2)n1` [Example 342, 4-(4-(4-(2-(2-Aminopyridin-3-yl)-5-(4-chlorophenyl)-3H-imidazo[4,5-b]pyridin-3-yl)benzyl)piperazin-1-yl)pyrimidine-2-carbonitrile], with 15 to 60 nM; and `N#Cc1ccnc(N2CCN(Cc3ccc(-n4c(-c5cccnc5N)nc5ccc(-c6ccc(Cl)cc6)nc54)cc3)CC2)n1` [Example 343, 2-(4-(4-(2-(2-Aminopyridin-3-yl)-5-(4-chlorophenyl)-3H-imidazo[4,5-b]pyridin-3-yl)benzyl)piperazin-1-yl)pyrimidine-4-carbonitrile], with 60 to 600 nM. In the case of `N#Cc1cc(N2CCN(Cc3ccc(-n4c(-c5cccnc5N)nc5ccc(-c6ccc(Cl)cc6)nc54)cc3)CC2)ncn1` [Example 344, 6-(4-(4-(2-(2-Aminopyridin-3-yl)-5-(4-chlorophenyl)-3H-imidazo[4,5-b]pyridin-3-yl)benzyl)piperazin-1-yl)pyrimidine-4-carbonitrile] it was 60 to 600 nM; in that of `CN1CCN(c2ccc3nc(-c4cccnc4N)n(-c4ccc(CN5CCN(c6ccnc(C#N)n6)CC5)cc4)c3n2)CCC1=O` [Example 345, 4-(4-(4-(2-(2-Aminopyridin-3-yl)-5-(4-methyl-5-oxo-1,4-diazepan-1-yl)-3H-imidazo[4,5-b]pyridin-3-yl)benzyl)piperazin-1-yl)pyrimidine-2-carbonitrile], 60 to 600 nM.

For `CN1CCN(c2ccc3nc(-c4cccnc4N)n(-c4ccc(CN5CCC(Nc6ccnc(C#N)n6)CC5)cc4)c3n2)CCC1=O` [Example 346, 4-((1-(4-(2-(2-Aminopyridin-3-yl)-5-(4-methyl-5-oxo-1,4-diazepan-1-yl)-3H-imidazo[4,5-b]pyridin-3-yl)benzyl)piperidin-4-yl)amino)pyrimidine-2-carbonitrile], the IC50 lay in the range of 60 to 600 nM. With `N#Cc1ccnc(NC2CCN(Cc3ccc(-n4c(-c5cccnc5N)nc5ccc(N6CCCNC(=O)C6)nc54)cc3)CC2)n1` [Example 347, 2-((1-(4-(2-(2-Aminopyridin-3-yl)-5-(3-oxo-1,4-diazepan-1-yl)-3H-imidazo[4,5-b]pyridin-3-yl)benzyl)piperidin-4-yl)amino)pyrimidine-4-carbonitrile], the half-maximal inhibitory concentration (IC50) was in the range of 60 to 600 nM. With `Cn1cc(-c2ccc3nc(-c4cccnc4N)n(-c4ccc(CN5CCN(c6ccnc(C#N)n6)CC5)cc4)c3n2)ccc1=O` [Example 348, 4-(4-(4-(2-(2-Aminopyridin-3-yl)-5-(1-methyl-6-oxo-1,6-dihydropyridin-3-yl)-3H-imidazo[4,5-b]pyridin-3-yl)benzyl)piperazin-1-yl)pyrimidine-2-carbonitrile], the IC50 is 60 to 600 nM. In the case of `Cn1ccc(-c2ccc3nc(-c4cccnc4N)n(-c4ccc(CN5CCN(c6ccnc(C#N)n6)CC5)cc4)c3n2)cc1=O` [Example 349, 4-(4-(4-(2-(2-Aminopyridin-3-yl)-5-(1-methyl-2-oxo-1,2-dihydropyridin-4-yl)-3H-imidazo[4,5-b]pyridin-3-yl)benzyl)piperazin-1-yl)pyrimidine-2-carbonitrile] it was 15 to 60 nM; in that of `N#Cc1ccnc(N2CCN(Cc3ccc(-n4c(-c5cccnc5N)nc5ccc(C6CC6)nc54)cc3)CC2)n1` [Example 350, 2-(4-(4-(2-(2-Aminopyridin-3-yl)-5-cyclopropyl-3H-imidazo[4,5-b]pyridin-3-yl)benzyl)piperazin-1-yl)pyrimidine-4-carbonitrile], 15 to 60 nM; in that of `N#Cc1ccnc(NC2CCN(Cc3ccc(-n4c(-c5cccnc5N)nc5ccc(C6CC6)nc54)cc3)CC2)n1` [Example 351, 2-((1-(4-(2-(2-Aminopyridin-3-yl)-5-cyclopropyl-3H-imidazo[4,5-b]pyridin-3-yl)benzyl)piperidin-4-yl)amino)pyrimidine-4-carbonitrile], 15 to 60 nM.
